In one data set the test system is bacteria. The data set can be described thus: Microcalorimetry activity of Vanco-Bis-TCO-Glycine. In kind it is cell-based. Conditions: tested up to 64 μg/ml (32 μM), without activating gel.
The next data set relates to MRSA bacteria. Kind of data set: In vitro calorimetry (MRSA) in presence and absence of TAG.
Data set [1] deals with methicillin-resistant Staphylococcus Aureus SP231. The data set can be described thus: Rat knee joint MRSA infection study. Conditions: rats; TAG (right knee) vs unmodified alginate control gel (left knee); prodrug via tail vein; 24 h; p<0.05. In kind it is in vivo. The method, then:
Prodrug, TCO-Dapto was delivered systemically via tail vein. Mean±SEM of n=3, unpaired two-tailed Welch's t-test, *p<0.05.
Female Sprague-Dawley rats of age 6-8 weeks were approved for this study by the Institution of Animal Care and Use Committee (IACUC). Neutropenia was induced with cyclophosphamide intraperitoneally, 4 days (150 mg/kg) and 1 day (100 mg/kg) prior to gel injections. Animals received intra-articular injections of […] of 2.5% w/v of Cy5-modified alginate TAG (right knee) or unmodified alginate-Cy5 gel control (left knee) mixed with […] of 10^8 CFU/mL of methicillin-resistant Staphylococcus Aureus SP231 bacteria. After 2 h, animals received 61 μM of transcyclooctene-modified daptomycin-glycine (TCO-Dapto) via tail vein IV at standard dosing volume. After 24 h of gel injections, knee joints were harvested, homogenized and diluted in Dubelco's Phosphate buffered saline (D-PBS). Homogenized mixture was plated onto trypticase soy agar plates containing 5% sheep's blood duplicate. Bacterial colonies were enumerated following 20 h of incubation and bacterial load as LOG CFU/g of knee joint was determined. Statistical analysis was performed with Welch's two-tailed t-test and * denotes p<0.05. Error bars indicate standard error over means of n=3.

Data set [2] in a line: Aqueous solubility of Example 13B under different buffer conditions.
[3] abbreviates: Phosphate Buffer pH 6.5, final pH 6.1.
Setting [4] is: Phosphate Buffer pH 7.5, final pH 5.4.

Converted amounts (≈) assume the structure as drawn. “And” between values parts separate entries of the source, which are not always exact repeats. Equal entries are not always repeated.

This is an account of results in patent publication US12296017B2, “Bioorthogonal compositions” (TAMBO, INC., priority 2017, dated 2025).

Take `CC(C)CC(C(=O)N[C@H]1C(=O)N[C@@H](CC(N)=O)C(=O)N[C@H]2C(=O)N[C@H]3C(=O)N[C@H](C(=O)N[C@H](C(=O)O)c4cc(O)cc(O)c4-c4cc3ccc4O)[C@H](O)c3ccc(c(Cl)c3)Oc3cc2cc(c3O[C@@H]2O[C@H](CO)[C@@H](O)[C@H](O)[C@H]2O[C@H]2C[C@](C)(NC(=O)O[C@@H]3/C=C/CC[C@](C)(C(=O)NCC(=O)O)CC3)[C@H](O)[C@H](C)O2)Oc2ccc(cc2Cl)[C@H]1O)N(C)C(=O)O[C@@H]1/C=C/CC[C@](C)(C(=O)NCC(=O)O)CC1` (stereo partly drawn) [Example 13C, Vanco-Bis-TCO-glycine Conjugate]: the “activity against bacteria as measured by microcalorimetry” value in the data set with bacteria was “no activity”. For the same molecule, in the data set on MRSA bacteria, the “MHIC in the absence of TAG relative to presence of TAG” value came to 8 ×.
Regarding `CCCCCCCCCC(=O)NC(Cc1c[nH]c2ccccc12)C(=O)NC(CC(N)=O)C(=O)NC(CC(=O)O)C(=O)NC1C(=O)NCC(=O)NC(CCCNC(=O)OC2C=CCCC(C)(C(=O)NCC(=O)O)CC2)C(=O)NC(CC(=O)O)C(=O)NC(C)C(=O)NC(CC(=O)O)C(=O)NCC(=O)NC(CO)C(=O)NC(C(C)CC(=O)O)C(=O)NC(CC(=O)c2ccccc2N)C(=O)OC1C` (stereo not drawn) [Example 13B, Dapto-TCO-Glycine], the “bacterial loading of harvested knee joint” value in data set [1] is reported as “reduces MRSA infection in vivo in a knee joint”. For the same molecule, the “Solubility, Mean” value in data set [2] (Buffer: Water, final pH 3.4) is on record as 0.15 mg/mL (≈ 0.0795 mM); in data set [2] (setting [3]), 10.9 mg/mL (≈ 5.77 mM); in data set [2] (setting [4]) it was 38.3 mg/mL (≈ 20.3 mM). For the same molecule, the “Solubility, Value” was 0.15 mg/mL and 0.14 mg/mL in data set [2] (Buffer: Water, final pH 3.4); 10.8 mg/mL and 10.9 mg/mL in data set [2] (setting [3]); 38.1 mg/mL and 38.3 mg/mL in data set [2] (setting [4]).
